Key:
PDE1A = target: T1, PDE1A (Homo sapiens, UniProt P54750); experiment: PDE1A inhibitor assay (fluorescence polarization, cell-free); assay type: biochemical; conditions: for IC50: cell-free, duplicates, 1% DMSO, CI = confidence interval
T1 construct: purchased Biomol (Hamburg, Germany) #60310
Description: The activity of PDE4D and PDE1A was measured with assay kits #60345 and #60310 from Biomol (Hamburg, Germany). Assays were based on fluorescence polarization using fluorescein amidites-labeled cAMP and were performed according to the manufacturer’s instructions. Samples were recorded as duplicates in a 96-well plate containing equal amounts of DMSO (1%). The fluorescence polarization was measured at excitation wavelengths between 480 and 516 nm and emission wavelengths between 530 and 540 nm by using the plate reader CLARIOstar (BMG Labtech, Ortenberg, Germany). The IC50 values were calculated by a fitting of sigmoidal dose–response curves (variable slope) with GraphPad Prism version 3.00 for Windows (GraphPad, San Diego, CA, USA).

[1] = test system: airway smooth muscle of mouse tracheal slices, acetylcholine-induced contraction; experiment: ACh-induced contraction of mouse tracheal slices (tissue bath); assay type: cell-based, C57BL/6N mice
From the text: Male and female C57BL/6N mice (Charles River, Sulzfeld, Germany, and own breeding at the Institute of Pharmaceutical and Medicinal Chemistry, University of Münster, Germany) were housed under standard conditions. Animal care followed the rules of German laws (Az. 53.5.32.7.1/MS-12668, Health and Veterinary Office Münster, Germany). The mice were sacrificed using CO2. A Mayflower horizontal tissue bath (Hugo Sachs Elektronik, Germany) was used to measure contractions. Murine tracheal slices of 3 mm were placed in the 5 mL tissue bath at a preload of 0.2 cN. Krebs–Henseleit buffer (37 °C) was continuously gassed (O2:CO2 95:5). Drosera dry extract (0.5 mg/mL) was solved in Krebs–Henseleit buffer containing 1 % DMSO (DE). DFA was obtained as described above. […] Control solutions contained equal amounts of DMSO depending on the respective test compound. Experiments were started after an equilibration time of 60 min. Tracheal tension was measured isometrically (force transducer F10 Type 375, amplifier TAM-A Type 705/1, evaluation software HSE ACAD 2.0, Harvard Apparatus GmbH, March-Hugstetten, Germany). […] Test solutions were added 10 min before the next ACh bolus. When using a high potassium solution (60 mM K^+), NaCl concentration was reduced to maintain osmolarity. At least 3 K^+-induced contractions (each 20 min) were averaged and taken as control contraction. The maximal contraction represents the highest value, while the plateau (plat.) was calculated in minutes 19–20.

[2] = test system: ciliated tracheal epithelium cells; experiment: Ciliary beat frequency (CBF) of murine tracheal slices; assay type: cell-based, C57BL/6N mice; conditions: for CBFRatio (related to CBFBasal): mean ± SD
Description: Male and female C57BL/6N mice (Charles River, Sulzfeld, Germany, and own breeding at the Institute of Pharmaceutical and Medicinal Chemistry, University of Münster, Germany) were housed under standard conditions. Animal care followed the rules of German laws (Az. 53.5.32.7.1/MS-12668, Health and Veterinary Office Münster, Germany). The mice were sacrificed using CO2. Murine tracheal explants were placed in LHC-9 medium (Invitrogen, CA, USA), cut into 0.5 mm slices and stored at 37 °C and an atmosphere of 5% CO2. The medium was changed every 3 days. CBF was measured up to 7 days after dissection. Slices were placed in a 0.7 mL perfusion chamber at 37 °C and perfused with Krebs–Henseleit buffer (1 mL/min). The tissue bath was located at an inverted Nikon Eclipse Ti2 microscope (Nikon GmbH, Düsseldorf, Germany) with a 100× oil objective. Drosera dry extract (0.2 mg/mL) was solved in Krebs–Henseleit buffer containing 0.3% DMSO (DE). The amount of DMSO was not exceeding 0.3%; as for this concentration, no effects on CBF were reported. DFA was prepared as described above. […] 2″-O-Galloylhyperoside, ATP and salbutamol were solved without DMSO. In case DMSO was added, all test solutions of one experiment contained the same amount of DMSO. […] Videos were captured and analyzed by the SAVA software (Ammons Engineering, Clio, MI, USA). Ciliated cells exerted baseline frequencies in a range of 5 to 20 Hz, in agreement with the literature. Data were normalized to values of the last 5 min before changing to a test solution (CBFbasal), and effects on ciliary beating were expressed as a ratio (CBFRatio).

PDE4D = target: T2, PDE4D (Homo sapiens, UniProt Q08499); experiment: PDE4D inhibitor assay (fluorescence polarization, cell-free); assay type: biochemical; conditions: for IC50: cell-free, duplicates, 1% DMSO, CI = confidence interval
T2 construct: purchased Biomol (Hamburg, Germany) #60345
T2 sequence (Q08499 303-809 limits assumed): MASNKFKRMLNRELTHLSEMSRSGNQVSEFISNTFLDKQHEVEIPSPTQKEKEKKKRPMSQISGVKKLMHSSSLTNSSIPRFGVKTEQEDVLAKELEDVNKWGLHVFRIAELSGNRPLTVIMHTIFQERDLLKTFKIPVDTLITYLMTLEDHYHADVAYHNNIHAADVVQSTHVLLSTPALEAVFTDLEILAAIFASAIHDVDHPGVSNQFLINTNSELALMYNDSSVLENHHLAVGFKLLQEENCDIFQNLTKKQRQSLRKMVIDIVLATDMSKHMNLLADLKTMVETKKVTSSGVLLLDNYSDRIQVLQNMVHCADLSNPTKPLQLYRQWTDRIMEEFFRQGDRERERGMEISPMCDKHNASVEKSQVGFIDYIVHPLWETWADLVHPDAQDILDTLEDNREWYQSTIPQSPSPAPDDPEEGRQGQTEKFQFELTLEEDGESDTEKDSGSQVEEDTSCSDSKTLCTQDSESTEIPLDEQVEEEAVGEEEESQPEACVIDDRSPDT
Description: Assays were based on fluorescence polarization using fluorescein amidites-labeled cAMP and were performed according to the manufacturer’s instructions. Samples were recorded as duplicates in a 96-well plate containing equal amounts of DMSO (1%). […] The IC50 values were calculated by a fitting of sigmoidal dose–response curves (variable slope) with GraphPad Prism version 3.00 for Windows (GraphPad, San Diego, CA, USA).

guinea-pig ileum = test system: guinea-pig ileum; design: method as in PMID 11933852; conditions: 10 µM; cited from earlier work

T1 sequence (P54750 whole entry): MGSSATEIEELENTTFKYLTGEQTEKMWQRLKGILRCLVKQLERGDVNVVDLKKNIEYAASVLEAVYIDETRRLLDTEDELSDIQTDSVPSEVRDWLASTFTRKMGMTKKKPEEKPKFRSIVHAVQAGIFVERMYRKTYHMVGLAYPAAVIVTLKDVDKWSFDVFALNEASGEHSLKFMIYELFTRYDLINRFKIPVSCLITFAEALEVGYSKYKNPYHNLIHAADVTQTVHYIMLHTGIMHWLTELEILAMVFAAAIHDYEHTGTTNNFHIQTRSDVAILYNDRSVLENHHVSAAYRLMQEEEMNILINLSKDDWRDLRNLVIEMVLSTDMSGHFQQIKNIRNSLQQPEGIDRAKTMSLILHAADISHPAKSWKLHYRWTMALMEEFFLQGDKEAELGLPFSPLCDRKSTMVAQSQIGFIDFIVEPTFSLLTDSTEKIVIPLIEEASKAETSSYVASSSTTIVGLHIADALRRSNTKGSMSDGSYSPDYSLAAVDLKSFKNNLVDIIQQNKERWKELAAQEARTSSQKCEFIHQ

For `O=C(O[C@H]1[C@H](Oc2c(-c3ccc(O)c(O)c3)oc3cc(O)cc(O)c3c2=O)O[C@H](CO)[C@H](O)[C@@H]1O)c1cc(O)c(O)c(O)c1` [2″-O-galloylhyperoside], the IC50 (PDE1A) was 3 µM, the “ACh-induced contraction, % of control” value ([1]; 500 µM, 10 min pretreatment, 100 µM ACh) was 61 ± 21% and the “ACh-induced contraction compared with the effect at 500 µM” value ([1]; 750 and 1000 µM, 100 µM ACh) was “did not significantly differ”. The “CBFRatio (related to CBFBasal)” value ([2]; 300 µM, minutes 10 to 15) was 1.11 ± 0.04 and the IC50 (PDE4D) was 1.1 µM.

With `COCc1nc2c([nH]1)c(=O)n(C)c(=O)n2CC(C)C` [8MmIBMX, 8-methoxymethyl-IBMX] the IC50 (PDE1A) was 12 µM, the “increase of CBF on average” value ([2]; 100 µM) was 20% and the “CBFRatio (related to CBFBasal)” value ([2]; 100 µM, minutes 10 to 15) was 1.2 ± 0.1. The “PDE4D activity (% of control without inhibitor)” value (PDE4D; 50 µM) was 77 ± 6% and the “PDE4D activity (% of control without inhibitor)” value (PDE4D; 100 µM) was 70 ± 2%.

With `Nc1ncnc2c1ncn2[C@@H]1O[C@H](COP(=O)(O)OP(=O)(O)OP(=O)(O)O)[C@@H](O)[C@H]1O` [ATP] the “CBFRatio (related to CBFBasal)” value ([2]; 30 µM, minutes 10 to 15) was 1.4 ± 0.2.

For `O=c1c(O[C@@H]2O[C@H](CO)[C@H](O)[C@H](O)[C@H]2O)c(-c2ccc(O)c(O)c2)oc2cc(O)cc(O)c12` [Hyperoside, hyperoside], the “ACh-mediated contraction force, % of control” value ([1]; 50 to 750 µM, all concentrations tested, 100 µM ACh) was “approximately 80%”, the “maximal reduction of ACh-induced contraction force” value ([1]; maximal effect) was 20–25% and the IC50 (PDE4D) was 3 µM.

For `O=c1c(O)c(-c2ccc(O)c(O)c2)oc2cc(O)cc(O)c12` [quercetin], the IC50 (PDE1A) was 4 µM, the “abrogation of ACh-induced contraction on ASM” value ([1]; 10 µM) was “failed to abrogate” and the activity at 25 µM ([1]; Mus musculus, 25 µM, 10 min pretreatment, read-out: effect of 100 µM ACh (contraction force, % of control)) was 74 ± 11%. For the same molecule, the activity at 50 µM ([1]; Mus musculus, 50 µM, 10 min pretreatment, read-out: effect of 100 µM ACh (contraction force, % of control)) was 63 ± 7%, the activity at 100 µM ([1]; Mus musculus, 100 µM, 10 min pretreatment, read-out: effect of 100 µM ACh (contraction force, % of control)) was 21 ± 2% and the “CBFRatio (related to CBFBasal)” value ([2]; 30 µM, minutes 10 to 15) was 1.2 ± 0.2. The “inhibition of carbachol-induced contractions” value (guinea-pig ileum) was “more than 50%” and the IC50 (PDE4D) was 2 µM.

In the case of `COc1ccc(C2CNC(=O)C2)cc1OC1CCCC1` (stereo not drawn) [rolipram], the remaining activity at 100 µM (PDE1A; 100 µM, read-out: PDE1A activity (% of control without inhibitor)) is reported as 98.2 ± 0.6%, the remaining activity at 300 µM (PDE1A; 300 µM, read-out: PDE1A activity (% of control without inhibitor)) is reported as 92 ± 2% and the “increase of CBF on average” value ([2]; 30 µM) is reported as 20%. The “CBFRatio (related to CBFBasal)” value ([2]; 30 µM, minutes 10 to 15) was 1.2 ± 0.2.

In the case of `CC(C)(C)NCC(O)c1ccc(O)c(CO)c1` (stereo not drawn) [salbutamol], the “CBFRatio (related to CBFBasal)” value ([2]; 50 µM, minutes 5 to 10) is reported as 1.4 ± 0.3.
